ChEMBL document CHEMBL1201862, “PubChem BioAssay data set” (2004)
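Assay format: 96-well plates, 48-hour exposure. Here, GI50 denotes the concentration required for 50% inhibition of growth.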 Calls of active or inactive are those of the source. No stated cut-off is given here; in the data, active = GI50 up to about 1.1 µM and inactive = higher.

How the values were obtained:
Assay in all cases: growth of human tumour cells (NCI), 48 h
OVCAR-3 = system: OVCAR-3
SK-OV-3 = system: SK-OV-3
786-0 = system: 786-0
SK-MEL-28 = system: SK-MEL-28
SF-268 = system: SF-268
RXF 393 = system: RXF 393
SNB-19 = system: SNB-19
NCI-H460 = system: NCI-H460
NCI-H522 = system: NCI-H522
ACHN = system: ACHN
M14 = system: M14
RPMI-8226 = system: RPMI-8226
LOX IMVI = system: LOX IMVI
SF-295 = system: SF-295
UACC-62 = system: UACC-62
CAKI-1 = system: CAKI-1
SK-MEL-2 = system: SK-MEL-2

Row | Compound | GI50 (OVCAR-3) | GI50 (SK-OV-3) | GI50 (786-0) | GI50 (SK-MEL-28) | GI50 (SF-268) | GI50 (RXF 393) | GI50 (SNB-19) | GI50 (NCI-H460) | GI50 (NCI-H522) | GI50 (ACHN) | GI50 (M14) | GI50 (RPMI-8226) | GI50 (LOX IMVI) | GI50 (SF-295) | GI50 (UACC-62) | GI50 (CAKI-1) | GI50 (SK-MEL-2)
1 | Cc1ccc(-c2cc(-c3ccco3)c(C#N)c(O)n2)cc1 | > 100 µM (inactive) | 29.4 µM (inactive) | > 100 µM (inactive) | > 100 µM (inactive) | > 100 µM (inactive) | 95.1 µM (inactive) | > 100 µM (inactive) | > 100 µM (inactive) | > 100 µM (inactive) | > 100 µM (inactive) | > 100 µM (inactive) | > 100 µM (inactive) | > 100 µM (inactive) | > 100 µM (inactive) | > 100 µM (inactive) |  | 
2 | O=c1oc(=O)c2oc3ccccc3oc1=2 | > 100 µM (inactive) | > 100 µM (inactive) | > 100 µM (inactive) | > 100 µM (inactive) | > 100 µM (inactive) | > 100 µM (inactive) | > 100 µM (inactive) | > 100 µM (inactive) | > 100 µM (inactive) | > 100 µM (inactive) | > 100 µM (inactive) |  | > 100 µM (inactive) | > 100 µM (inactive) | > 100 µM (inactive) | > 100 µM (inactive) | > 100 µM (inactive)
3 | CC(C)c1cccc(C(C)C)c1/N=C(/N)C#N | > 100 µM (inactive) | > 100 µM (inactive) | > 43.6 µM (inactive) | > 100 µM (inactive) | > 100 µM (inactive) | 53.8 µM (inactive) | > 100 µM (inactive) | > 44.9 µM (inactive) | 38 µM (inactive) | > 100 µM (inactive) | > 100 µM (inactive) | 34.4 µM (inactive) | 25.2 µM (inactive) | > 100 µM (inactive) | > 50.2 µM (inactive) | > 100 µM (inactive) | > 90.6 µM (inactive)
4 | FC(F)(F)c1cccc(/C=N/C23CC4CC(CC(C4)C2)C3)c1 | > 100 µM (inactive) | > 100 µM (inactive) | > 100 µM (inactive) | > 100 µM (inactive) | > 100 µM (inactive) | > 100 µM (inactive) | > 100 µM (inactive) | > 100 µM (inactive) |  | > 100 µM (inactive) | > 100 µM (inactive) | > 100 µM (inactive) | > 100 µM (inactive) | > 100 µM (inactive) |  | > 100 µM (inactive) | > 100 µM (inactive)
5 | CN1CCC23c4c5ccc(O)c4OC2C(=NN=C2CCC4(O)C6Cc7ccc(O)c8c7C4(CCN6C)C2O8)CCC3(O)C1C5 (stereo not given) | > 100 µM (inactive) | > 100 µM (inactive) | > 100 µM (inactive) | > 100 µM (inactive) | > 100 µM (inactive) |  | > 100 µM (inactive) | > 100 µM (inactive) | > 100 µM (inactive) | > 100 µM (inactive) | > 100 µM (inactive) | > 100 µM (inactive) | > 100 µM (inactive) | > 100 µM (inactive) | > 100 µM (inactive) | > 100 µM (inactive) | > 100 µM (inactive)
6 | C[C@@H]1[C@@H]2[C@@H](C=C3C4CCC5Cc6nc7c(nc6C[C@@]5(C)C4C[C@H](O)[C@]32CO)CC2CCC3C4=C[C@H]5O[C@@]6(OC(C)(CO)C[C@@H]6O)[C@H](C)[C@@]5(O)[C@]4(C)[C@@H](O)CC3[C@]2(C)C7)O[C@]12CCC(C)(C)O2 (stereo not given in full) | 0.388 µM (active) | 0.0167 µM (active) | 0.00262 µM (active) | 0.0305 µM (active) | 0.0208 µM (active) | 0.00082 µM (active) | 0.111 µM (active) | 0.0101 µM (active) | 0.579 µM (active) | 0.171 µM (active) | 0.0182 µM (active) | 0.00144 µM (active) |  | 0.000508 µM (active) | 0.0802 µM (active) | 0.021 µM (active) | 0.0189 µM (active)
7 | c1cnc2c(c1)-n1cccc1C1(CCCCC1)NN2 | 86.3 µM (inactive) |  | > 100 µM (inactive) | > 100 µM (inactive) | > 100 µM (inactive) |  | > 100 µM (inactive) | 61.5 µM (inactive) | 63.1 µM (inactive) | 88.3 µM (inactive) | > 100 µM (inactive) | 47.9 µM (inactive) | 50 µM (inactive) | 69.2 µM (inactive) |  | 60 µM (inactive) | > 100 µM (inactive)
8 | Cc1ccc(S(=O)(=O)c2c(N)n(CCN(C)C)c3nc4ccccc4nc23)cc1 | > 100 µM (inactive) | > 100 µM (inactive) | > 100 µM (inactive) | > 100 µM (inactive) | > 100 µM (inactive) |  | > 100 µM (inactive) | > 100 µM (inactive) | 3.13 µM (inactive) | > 100 µM (inactive) | > 100 µM (inactive) | > 100 µM (inactive) |  | > 100 µM (inactive) |  |  | > 100 µM (inactive)
9 | CNC(=O)OCc1nc(SC2CCCCO2)n(C)c1COC(=O)NC (stereo not given) | > 100 µM (inactive) | > 100 µM (inactive) | > 100 µM (inactive) | > 100 µM (inactive) | > 100 µM (inactive) | > 100 µM (inactive) | > 100 µM (inactive) | > 100 µM (inactive) | > 100 µM (inactive) |  | > 100 µM (inactive) | > 100 µM (inactive) | > 100 µM (inactive) | > 100 µM (inactive) | > 100 µM (inactive) | > 100 µM (inactive) | > 100 µM (inactive)
10 | COC(=O)C(CCC#N)(CCC#N)C(=O)OC | > 100 µM (inactive) | > 100 µM (inactive) | > 100 µM (inactive) | > 100 µM (inactive) | > 100 µM (inactive) |  | > 100 µM (inactive) | > 100 µM (inactive) | > 100 µM (inactive) | > 100 µM (inactive) | > 100 µM (inactive) | > 100 µM (inactive) | > 100 µM (inactive) | > 100 µM (inactive) | > 100 µM (inactive) |  | 
11 | CC(=O)O[C@H]1C(N(C)C(=O)c2ccccc2)CC[C@]2(C)C3CC[C@@]4(C)C(CC(O)[C@@H]4C(C)N(C)C)[C@@H]3CCC12 (stereo not given in full) | > 100 µM (inactive) | > 100 µM (inactive) | > 100 µM (inactive) | > 100 µM (inactive) | > 100 µM (inactive) |  | > 100 µM (inactive) | > 100 µM (inactive) | > 100 µM (inactive) | > 100 µM (inactive) | > 100 µM (inactive) | > 100 µM (inactive) | > 100 µM (inactive) | > 100 µM (inactive) | > 100 µM (inactive) | > 100 µM (inactive) | > 100 µM (inactive)
12 | COc1cc2c(c(OC)c1O)-c1ccc(SC)c(=O)cc1C(NC(C)=O)CC2 (stereo not given) | < 0.01 µM (active) | 0.215 µM (active) | 0.0545 µM (active) | < 0.01 µM (active) | < 0.0107 µM (active) | 0.0171 µM (active) | 0.019 µM (active) | 0.0341 µM (active) | < 0.01 µM (active) | 0.557 µM (active) | 0.0249 µM (active) | < 0.0121 µM (active) | < 0.01 µM (active) | 0.0184 µM (active) | < 0.0119 µM (active) | 0.285 µM (active) | < 0.01 µM (active)
13 | Nc1c(-c2ccc(Cl)cc2Cl)[n+]([O-])c2ccccc2[n+]1[O-] | > 100 µM (inactive) | > 100 µM (inactive) | > 100 µM (inactive) | > 100 µM (inactive) | > 100 µM (inactive) |  | > 100 µM (inactive) | > 100 µM (inactive) | 37.4 µM (inactive) | > 100 µM (inactive) | > 100 µM (inactive) | > 100 µM (inactive) | > 100 µM (inactive) | > 100 µM (inactive) | > 100 µM (inactive) | > 100 µM (inactive) | > 100 µM (inactive)
14 | O=C1/C(=C(\Nc2ccccc2)c2ccccc2)C=NN1c1ccccc1 |  | > 100 µM (inactive) | > 100 µM (inactive) | > 100 µM (inactive) | > 100 µM (inactive) | 22.1 µM (inactive) | > 100 µM (inactive) | 96.4 µM (inactive) | > 100 µM (inactive) | 61 µM (inactive) | > 100 µM (inactive) | 40.8 µM (inactive) | > 100 µM (inactive) | > 100 µM (inactive) | > 100 µM (inactive) | > 100 µM (inactive) | > 100 µM (inactive)
15 | C=CCNC(=O)NCCCC(NC(C)=O)C(=O)NCc1ccccc1 (stereo not given) | > 100 µM (inactive) | > 100 µM (inactive) | > 100 µM (inactive) | > 100 µM (inactive) | > 100 µM (inactive) | > 100 µM (inactive) | > 100 µM (inactive) | > 100 µM (inactive) | > 100 µM (inactive) | > 100 µM (inactive) | > 100 µM (inactive) | > 100 µM (inactive) | > 100 µM (inactive) | > 100 µM (inactive) | > 100 µM (inactive) | > 100 µM (inactive) | > 100 µM (inactive)
16 | CCOC(=O)c1sc2c(sc(=O)n2-c2ccccc2)c1O | 88.7 µM (inactive) | > 100 µM (inactive) | > 100 µM (inactive) | > 100 µM (inactive) | > 100 µM (inactive) | > 100 µM (inactive) | > 100 µM (inactive) | > 100 µM (inactive) | > 100 µM (inactive) | > 100 µM (inactive) | > 100 µM (inactive) |  | 55.7 µM (inactive) | > 100 µM (inactive) | > 100 µM (inactive) | > 100 µM (inactive) | > 100 µM (inactive)
17 | O=C(O)[C@@H](NS(=O)(=O)c1ccc2ccccc2c1)c1ccccc1 |  | > 100 µM (inactive) | > 100 µM (inactive) | > 100 µM (inactive) | > 100 µM (inactive) | > 100 µM (inactive) | > 100 µM (inactive) | > 100 µM (inactive) | > 100 µM (inactive) | > 100 µM (inactive) | > 100 µM (inactive) | > 100 µM (inactive) | > 100 µM (inactive) |  | > 100 µM (inactive) | > 100 µM (inactive) | > 100 µM (inactive)
